In brackets after ≈: the same amount, converted by molar mass.
Columns and labels:
Assay type in all cases: physicochemical
[1] = aqueous solubility of voriconazole (previously measured data); details: water, aqueous buffer; pH 7; 22° C.
[2] = stability of voriconazole in water; details: an inactive enantiomer is formed from recombination of the retro-aldol products of hydrolysis
[3] = visual solubility of voriconazole in water and aqueous poloxamer F127 solutions (Example 2); details: for visual solubility in water: ambient conditions; for solubility: aqueous poloxamer F127 solution, aqueous with cosolvent or surfactant or cyclodextrin, thermodynamic from solid, read-out: soluble up to
Experimental: Voriconazole aqueous solutions of 0.5 and 1 mg/ml were prepared in water (20 ml). Corresponding aqueous solutions of 2, 3 and 4 mg/ml were prepared in aqueous poloxamer solutions (20 ml), as follows: The samples were prepared in 50 ml glass vials, and sonicated in an ultrasonic bath for 30 minutes. The solutions were allowed to cool, then visually assessed immediately and after 18 hours. The solubilization factor on the y-axis is a code for the level of solubility visually observed.

- solubility [1]: 610 µg/mL (≈ 1.75 mM)
- stability in water [2]: not stable in water
- visual solubility in water ([3]; 0.5 mg/ml in water): virtually complete solubility
- visual solubility in water ([3]; 1 mg/ml in water): clearly insoluble
- increase in solubility in comparison with water alone ([3]; 10% F127 solution): three to four fold
- increase in solubility in comparison with water alone ([3]; 15% F127 solution): five to six fold
- solubility ([3]; in 10% F127 solution): ≤ 2000 µg/mL
- solubility ([3]; in 15% F127 solution): ≤ 3000 µg/mL
Structure (SMILES): C[C@@H](c1ncncc1F)[C@](O)(Cn1cncn1)c1ccc(F)cc1F [voriconazole, (2R,3S)-2-(2,4-Difluorophenyl)-3-(5-fluoro-4-pyrimidinyl)-1-(1H-1,2,4-triazol-1-yl)-butan-2-ol]

— patent publication US20050112204A1, “Pharmaceutical formulations” (priority 2003, published 2005)
